Source: patent publication US8691818B2, “Cyclic triazo and diazo sodium channel blockers” (University Of Greenwich, priority 2008, dated 2014)
Where a name gives a salt, the structure may show the parent alone.

What was measured:
sodium channel = assay: [14C]guanidine flux: veratrine-evoked uptake of [14C]guanidine into rat forebrain synaptosomes (primary sodium channel assay); format: biochemical; conditions: 30° for 2½ min
Protocol: The screening strategy is designed to select compounds with appropriate sodium channel blocking activity and low side effect liability. To this end all compounds are processed through the primary sodium channel assay (veratrine-evoked uptake of [^14C]guanidine into rat forebrain synaptosomes) and IC50 values computed from generated concentration-effect curves.
Experiments were performed using forebrain (whole brain less cerebellum/medulla) from Male Wistar rats weighing 175-250 g. All efforts were made to reduce the number of animals used and all experiments were carried out in accordance with the UK Animals (Scientific Procedures) Act, 1986 and the European Community Council Directive of 24 Nov. 1986 (86/609/EEC). Following killing of animals by stunning and decapitation, the forebrain (whole brain less cerebellum/medulla) was rapidly dissected and transferred to a weighed tube containing ice-cold 0.25M sucrose.
Synaptosomes (heavy and light mitochondrial fraction containing synaptosomes) were prepared by transferring the forebrain (of known wet weight) to a glass Potter vessel to which 9 volumes ice-cold 0.25M sucrose had been added and homogenising, using a teflon pestle, by 8 ‘up and down strokes’ of a Braun Potter S motor driven homogeniser set to 900 rpm. The resulting homogenate was centrifuged at 1036×g at 4° for 10 min and the supernatant collected. The remaining pellet was resuspended, as above, in fresh ice-cold 0.25M sucrose and the centrifugation step repeated. The supernatant fractions were pooled and centrifuged at 40,000×g (average) at 4° for 15 min and the resulting pellet resuspended in the appropriate assay buffer at a concentration of 20-25 mg wet weight per ml appropriate assay buffer.
Both assays were carried out using 14 ml polypropylene test tubes to which a range of concentrations of the compounds under test were added.
The [^14C] guanidinine flux assay was measured using the method of Pauwels P J et al (1986) but carried out@30° for 2½ min.
(§1) Data are presented as mean±sem of number of experiments indicated in brackets.

[1] = biological target: T1, DiHydroFolate Reductase (DHFR) (Rattus norvegicus, UniProt Q920D2); assay: Inhibition of binding of [3H]methotrexate to rat liver homogenate supernatant; conditions: 125 μM; for inhibition at 125 µM: read-out: [3H]mtx binding (% inhibition @ 125 μM)
T1 construct: from tissue; host or cells: rat liver homogenate supernatant
T1 sequence (Q920D2 1-187): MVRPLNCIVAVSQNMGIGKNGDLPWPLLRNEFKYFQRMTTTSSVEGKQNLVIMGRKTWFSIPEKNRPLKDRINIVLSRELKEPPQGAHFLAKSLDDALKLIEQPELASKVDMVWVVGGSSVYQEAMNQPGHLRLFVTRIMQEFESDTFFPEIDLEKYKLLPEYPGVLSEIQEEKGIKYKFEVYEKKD
Protocol: All steps were carried out at 4° (or on ice). Freshly dissected rat liver was dissected into 0.25M ice-cold Sucrose and subsequently homogenised (U-turrax) in 50 mM pH 6.0 phosphate buffer (10 ml/g tissue) containing 15 mM Dithiothreitol. The resulting homogenate was centrifuged@47,500×g for 20 min and supernatant (filtered through cotton wool to remove fatty lumps) stored @ −80° before use (Rothenberg et al).
Inhibition of the binding of [^3H]methotrexate to rat liver homogenate supernatant fractions were carried out essentially as described by Arons et al, 1975.
as §1

| melting point | SMILES | also measured |
| --- | --- | --- |
| 258 to 259 °C | COc1cc(-c2nn(C)c(=N)nc2N)cc(OC)c1OC (as salt: methanesulfonate) [CEN-101, 5(3)-Amino-6-(3,4,5-trimethoxyphenyl)-2,3(2,5)-dihydro-3(5)-imino-2-methyl-1,2,4-triazine methanesulfonate] |  |
| 175 to 177 °C | CCn1nc(-c2ccc3ccccc3c2)c(N)nc1=N (as salt: methanesulfonate) [CEN-75, 5(3)-Amino-6-(2-naphthyl)-2,3(2,5)-dihydro-3(5)-imino-2-ethyl-1,2,4-triazine methanesulfonate] |  |
| 179 to 181 °C | Cn1nc(-c2cc(C(F)(F)F)cc(C(F)(F)F)c2)c(N)nc1=N (as salt: methanesulfonate) [CEN-99, 5(3)-Amino-6-[3,5-(bis-trifluoromethyl)phenyl]-2,3(2,5)-dihydro-3(5)-imino-2-methyl-1,2,4-triazine methanesulfonate] |  |
| 202 to 204 °C | CCn1nc(-c2sc(Cl)c(Cl)c2Cl)c(N)nc1=N (as salt: methanesulfonate) [CEN-195, 5(3)-Amino-6-{2-(3,4,5-trichloro)thienyl}-2,3(2,5)-dihydro-3(5)-imino-2-ethyl-1,2,4-triazine methanesulfonate] |  |
| 148 to 150 °C | Nc1nnc(-c2ccccc2OC(F)(F)F)c(N)n1 [CEN-56, 3,5-Diamino-6-(2-trifluoromethoxyphenyl)-1,2,4-triazine] |  |
| 174 to 176 °C | Cn1nc(-c2ccc(Oc3ccccc3)cc2)c(N)nc1=N (as salt: methanesulfonate) [CEN-102, 5(3)-Amino-6-(4-phenoxyphenyl)-2,3(2,5)-dihydro-3(5)-imino-2-methyl-1,2,4-triazine methanesulfonate] |  |
| 236 to 237 °C | Cn1nc(-c2cccc3c2CCCC3)c(N)nc1=N (as salt: methanesulfonate) [CEN-120, 5(3)-Amino-6-[1-(5,6,7,8-tetrahydronaphthyl)]-2,3(2,5)-dihydro-3(5)-imino-2-methyl-1,2,4-triazine methanesulfonate] |  |
| 207 to 209 °C | CCn1nc(-c2cccc(C(F)(F)F)c2Cl)c(N)nc1=N (as salt: methanesulphonate) [CEN-178, 5(3)-Amino-6-(2-chloro-3-trifluoromethyphenyl)-2,3(2,5)-dihydro-3(5)-imino-2-ethyl-1,2,4-triazine methanesulphonate] |  |
| 305 to 306 °C | CCn1nc(-c2cc(OC)c(OC)c(OC)c2)c(N)nc1=N (as salt: methanesulfonate) [CEN-119, 5(3)-Amino-6-(3,4,5-trimethoxyphenyl)-2,3(2,5)-dihydro-3(5)-imino-2-ethyl-1,2,4-triazine methanesulfonate] |  |
| 194 to 196 °C | CCn1nc(-c2cccs2)c(N)nc1=N (as salt: methanesulfonate) [CEN-62, 5(3)-Amino-6-(2-thienyl)-2,3(2,5)-dihydro-3(5)-imino-2-ethyl-1,2,4-triazine methanesulfonate] |  |
| 258 to 261 °C | CCn1nc(-c2cc(C(C)(C)C)cc(C(C)(C)C)c2)c(N)nc1=N (as salt: methanesulphonate) [CEN-189, 5(3)-Amino-6-(3,5 bis-tert-butylphenyl)-2,3(2,5)-dihydro-3(5)-imino-2-ethyl-1,2,4-triazine methanesulphonate] |  |
| 180 to 181 °C | Cn1nc(-c2cccc(-c3ccccc3)c2)c(N)nc1=N (as salt: methanesulfonate) [CEN-161, 5(3)-Amino-6-(3-biphenyl)-2,3(2,5)-dihydro-3(5)-imino-2-methyl-1,2,4-triazine methanesulfonate] |  |
| 243 to 244 °C | Cn1nc(-c2ccc3ccccc3c2)c(N)nc1=N (as salt: methanesulfonate) [CEN-76, 5(3)-Amino-6-(2-naphthyl)-2,3(2,5)-dihydro-3(5)-imino-2-methyl-1,2,4-triazine methanesulfonate] |  |
| 183 to 185 °C | Cn1nc(-c2cc(Br)c(Br)o2)c(N)nc1=N (as salt: methanesulfonate) [CEN-135, 5(3)-Amino-6-[2-(4,5-dibromofuryl)]-2,3(2,5)-dihydro-3(5)-imino-2-methyl-1,2,4-triazine methanesulfonate] |  |
| 192 to 194 °C | Cn1nc(-c2sc(Cl)c(Cl)c2Cl)c(N)nc1=N (as salt: methanesulfonate) [CEN-194, 5(3)-Amino-6-{2-(3,4,5-trichloro)thienyl}-2,3(2,5)-dihydro-3(5)-imino-2-methyl-1,2,4-triazine methanesulfonate] |  |
| 224 to 226 °C | CCn1nc(-c2cccc(-c3ccccc3)c2)c(N)nc1=N (as salt: methanesulfonate) [CEN-162, 5(3)-Amino-6-(3-biphenyl)-2,3(2,5)-dihydro-3(5)-imino-2-ethyl-1,2,4-triazine methanesulfonate] |  |
| 240 to 242 °C | Cn1nc(C(C)(c2ccccc2)c2ccccc2)c(N)nc1=N (as salt: methanesulfonate) [CEN-149, 5(3)-Amino-6-(1,1-diphenylethyl)-2,3(2,5)-dihydro-3(5)-imino-2-methyl-1,2,4-triazine methanesulfonate] |  |
| 272 to 273 °C | Cn1nc(C2(c3ccc(Cl)cc3)CCCC2)c(N)nc1=N (as salt: methanesulfonate) [CEN-150, 5(3)-Amino-6-{1-[1-(4-chlorophenyl)]cyclopentyl}-2,3(2,5)-dihydro-3(5)-imino-2-methyl-1,2,4-triazine methanesulfonate] |  |
|  | Nc1nnc(-c2cc3ccccc3oc2=O)c(N)n1 [CEN-133] | IC50 (sodium channel): > 2000 µM; inhibition at 125 µM [1]: 17% |
| 213 to 215 °C | Cn1nc(-c2ccccc2OC(F)F)c(N)nc1=N (as salt: methanesulfonate) [CEN-146, 5(3)-Amino-6-(2-difluoromethoxyphenyl)-2,3(2,5)-dihydro-3(5)-imino-2-methyl-1,2,4-triazine methanesulfonate] |  |
|  | Nc1nnc(-c2ccc(F)c(Oc3ccccc3)c2)c(N)n1 [CEN-184, 3,5-Diamino-6-(4-fluoro-3-phenoxylphenyl)-1,2,4-triazine tosylate] | IC50 (sodium channel): 34 µM; inhibition at 125 µM [1]: 104% |
| 201 to 202 °C | Cn1nc(-c2cccs2)c(N)nc1=N (as salt: methanesulfonate) [CEN-61, 5(3)-Amino-6-(2-thienyl)-2,3(2,5)-dihydro-3(5)-imino-2-methyl-1,2,4-triazine methanesulfonate] |  |
|  | COc1cc(-c2nn(C)c(=N)nc2N)cc(OC)c1OC [CEN-101, 5(3)-Amino-6-(3,4,5-trimethoxyphenyl)-2,3(2,5)-dihydro-3(5)-imino-2-methyl-1,2,4-triazine methanesulfonate] | IC50 (sodium channel): > 1000 µM; inhibition at 125 µM [1]: 65% |
|  | Nc1nnc(-c2cccc(-c3nnc(N)nc3N)c2)c(N)n1 [CEN-186] | IC50 (sodium channel): > 2000 µM; inhibition at 125 µM [1]: 83% |
|  | COc1ccc2c(OC)cccc2c1-c1nnc(N)nc1N [CEN-158] | IC50 (sodium channel; listed as 158): > 1000 µM; [3H]mtx binding (% inhibition @ 125 μM) ([1]; listed as 158, 125 µM): −1% |
|  | Cn1nc(C(C)(c2ccccc2)c2ccccc2)c(N)nc1=N [CEN-149, 5(3)-Amino-6-(1,1-diphenylethyl)-2,3(2,5)-dihydro-3(5)-imino-2-methyl-1,2,4-triazine methanesulfonate] | IC50 (sodium channel): 23.4 µM; inhibition at 125 µM [1]: 4% |
|  | Nc1nnc(-c2ccc(Oc3ccc(-c4nnc(N)nc4N)cc3)cc2)c(N)n1 [CEN-111, Bis-[3,5-Diamino-6-(4-ARYL)-1,2,4-triazine]] | IC50 (sodium channel): 912 µM; inhibition at 125 µM [1]: 97% |
|  | Nc1nnc(-c2cccc(Cl)n2)c(N)n1 [CEN-166, 3,5-Diamino-6-[2-(6-chloropyidyl)]-1,2,4-triazine] | IC50 (sodium channel): 1180 µM; inhibition at 125 µM [1]: 88% |

| SMILES | melting point | also measured |
| --- | --- | --- |
| Cn1nc(-c2cc(F)c(F)cc2Cl)c(N)nc1=N (as salt: mesylate) [CEN-204, 5(3)-Amino-6-(2-chloro-4,5-difluoro-5-phenyl)-2,3(2,5)-dihydro-3(5)-imino-2-methyl-1,2,4-triazine mesylate] | 319 to 321 °C |  |
| CCn1nc(-c2cc(C(F)(F)F)cc(Cl)c2F)c(N)nc1=N (as salt: mesylate) [CEN-203, 5(3)-Amino-6-(3-chloro-2-fluoro-5-trifluoromethyphenyl)-2,3(2,5)-dihydro-3(5)-imino-2-ethyl-1,2,4-triazine mesylate] | 277 to 279 °C |  |
